Row | Compound | melting point [°C]
1 | Cc1cn(C2CCN(c3c(F)cc4c(=O)c(C(=O)O)cn5c4c3OCC5C)C2)nn1 (single isomer, unassigned; (-)) | 241 to 242
2 | COc1ccc(-c2cc(COS(C)(=O)=O)c(=O)n(CC3CCCC3)n2)cc1F | 108 to 116
3 | CC(=O)OC1CSC(Oc2cccc(-c3ccc(C#N)nc3)c2)C(OC(C)=O)C1OC(C)=O (centres undefined) | 130
4 | c1ccc(CN2CCC(c3cc(-c4ccccc4)[nH]n3)CC2)cc1 | 130 to 131
5 | COc1ccccc1Oc1c(O)nc(O)nc1O | 202 to 204
6 | c1ccc(-c2csc(-c3cccs3)n2)cc1 | 51 to 53
7 | CCCCCC[C@H](F)CO | 33 to 35
8 | CC1CCc2c(c3cc(Br)ccc3n2C(=O)OC(C)(C)C)C1 (centres undefined) | 122
9 | CCOC(=O)C(=Cc1ccc(NC)cc1[N+](=O)[O-])C(=O)OCC | 113 to 114
10 | Cn1c(CO)nc([N+](=O)[O-])c1C#N | 122 to 124
11 | NC(=O)c1c(F)cccc1[N+](=O)[O-] | 161 to 162
12 | CC(=O)OC(c1nc2c(C(F)(F)F)cccc2c(O)c1C(=O)Nc1nccs1)C(C)C (centres undefined) | 242
13 | CCOC(=O)c1ccc(Cl)nn1 | 145 to 150
14 | CNC(=O)c1ccccc1Nc1nc(Nc2ccc3c(c2)CCN(C(=O)C(F)(F)F)CC3)ncc1Cl | 192 to 194
15 | NC(=O)c1c(Cl)ccc([N+](=O)[O-])c1Cl | 163 to 165
16 | O=C1c2c(O)ccc(O)c2C(=O)c2c(NCCN3CCCC3CO)ccc(NCCN3CCCC3CO)c21 (centres undefined) | 202 to 204
17 | CCCC(=O)CCCC(=O)CCCSCCCC(C)(C)C(=O)OCC | 104 to 105
18 | CC(=O)Oc1c(C(C)(C)C)cc(C#N)c(C)c1C(=O)Nc1ccc(C#N)cc1C(F)(F)F | 171 to 172
19 | COc1ccc(C2=NN=C(C)C(C)c3cc(OC)c(OC)cc32)cc1OC (centres undefined) | 201 to 203
20 | Cc1nn(-c2c(Cl)cc(C(F)(F)F)cc2Cl)c(N)c1SC#N | 134
21 | C=CCCC(=O)Nc1ccccc1 | 93 to 94
22 | N#Cc1c(Cc2ccccc2)nn(C2CCCC2)c1NC(=O)Cc1ccccc1 | 166 to 168
23 | COCn1ncc2cc(C(=O)OC)ccc21 | 73 to 74
24 | CCCn1nc2oc(=O)cc(C)c2c1C | 108 to 110
25 | O=[N+]([O-])c1cccc(CN(CCO)CCO)c1 | 71 to 72
26 | COc1ccc2[nH]c3c(c2c1)C[C@@]1(C)C(=O)N(CCCN(C)C)C(=O)N1[C@@H]3c1cccc(O)c1 (racemic) | 228 to 231
27 | O=Cc1cc(OCCCC(=O)N(CCO)CCCCC2CCCC2)ccc1[N+](=O)[O-] | 107 to 108

Row | Compound | melting point [°C]
28 | Cc1cc(-c2nc3cc(F)cc(F)c3c(=O)[nH]2)cc(C)c1OCCN1CCCC1 | 234 to 235
29 | Cc1nc2c3c(ccn2c1C)C(=O)CC(c1ccsc1)N3 (centres undefined) | 176 to 177
30 | COc1ccc(C2CCC(=O)CC2=O)cc1 (centres undefined) | 150 to 151
31 | N#CCSc1nnc2ccccn12 | 121 to 123
32 | N#CC1Nc2ccccc2N2CCc3cccc1c32 (centres undefined) | 185 to 186
33 | O=C1NC(=O)C(Br)(Cc2ccccc2)C(=O)N1 | 164 to 166
34 | COC(=O)/C=C(\C)c1ccc2c(c1)C(C)(C)OC(=O)N2 | 131 to 132
35 | Nc1ncnc2c1c(-c1ccc(Oc3ccccc3)cc1)c(Br)n2C1CCCC1 | 162
36 | CC1=Cc2cc(Br)cc(S(N)(=O)=O)c2OS1(=O)=O | 243 to 245
37 | COC[C@H](C)Oc1cc(N(C)S(=O)(=O)c2ccccn2)c2[nH]c(C3=NCC(CN4CCS(=O)CC4)S3)cc2c1 (some centres undefined) | 175 to 176
38 | COc1ccc(OC)c2c1C(=O)c1ccc(-c3nnn[nH]3)cc1C2=O | 260 to 262
39 | CCOP1(=S)OCc2cc(C)cnc2O1 (centres undefined) | 54 to 55
40 | CS(=O)(=O)Nc1ccc2c(c1)C(=O)C1(CC1)O2 | 152 to 154
41 | CC(C)=CCNC(=O)Cn1ccnc1[N+](=O)[O-] | 174 to 176
42 | O=c1ccn([C@@H]2C[C@H](O)[C@@H](O)[C@H]2O)c(=O)[nH]1 (racemic) | 229 to 230
43 | C[C@@H](O)Cn1cnc2c(N)ncnc21 | 188 to 190
44 | COC(=O)C1C(=O)CC2CCC1N2C (mixture of isomers) | 104 to 107
45 | CCCCCCCCCc1c(Cl)nc(-c2ccc(OC)c(F)c2)nc1Cl | 59 to 60
46 | Cn1c2ccc(Cl)cc2c2cc(C(=O)N3CCOCC3)sc21 | 178 to 182
47 | CN(C)C=Nc1c(Cl)cc(N=Cc2ccc(N(C)C)c(Br)c2)cc1Cl | 140 to 141
48 | Cc1ccc(-c2cnc(-c3cc(C(F)(F)F)cs3)s2)s1 | 131 to 133
49 | CCCCC1(N(C)C)CCC(c2[nH]c3ccc(C#N)cc3c2C)CC1 (centres undefined) | 162 to 166
50 | CC(C)C(NC(=O)Nc1ccc(C(=O)NCC(=O)OCc2ccccc2)cc1)C(=O)N1CCCC1C(=O)NC(C(=O)C(F)(F)F)C(C)C (mixture of isomers) | 65 to 70
51 | CCCCCNC(=O)c1cnc(N2CCN(C(=O)c3ccccc3C(F)(F)F)CC2)s1 | 92 to 94
52 | N#CN1c2ccccc2CC(Cl)c2ccccc21 (centres undefined) | 139 to 140
53 | Cc1c(C(=O)Nc2ccc(N3CCN(C4CCOCC4)CC3)c(C#N)c2)cnn1-c1ccc(F)c(F)c1 | 235
54 | CSc1nn2c(=O)cc(CCl)nc2s1 | 168 to 169

Second part, the molecule after the results:

Row | melting point [°C] | Compound
55 | 174 to 176 | CC1(C)OC(=O)C(Sc2nccs2)=C1c1ccc(S(C)(=O)=O)cc1
56 | 117 to 118 | Nc1ccncc1Oc1ccc2ccccc2c1
57 | 183 to 184 | O=C(Nc1ccc(CN2C(=O)[C@H]3CCC[C@H]3Nc3ccccc32)cc1)Oc1ccccc1 (relative stereo)
58 | 123 to 125 | COC=C(C(=O)OC)N(C)c1nccc(-c2ccccc2)n1
59 | 116 to 117 | Cc1ccnc(C(c2cc(F)ccc2F)S(=O)(=O)c2ccc(Cl)cc2)c1 (centres undefined)
60 | 162 to 164 | Cc1ccc(S(=O)(=O)C(CC=Cc2ccc(Cl)cc2)C(=O)O)cc1 (centres undefined)
61 | 136 | O=C(O)CCCC(=O)c1cc(-c2ccccc2)nc2ccccc12
62 | 211 | NS(=O)(=O)c1cccc(-c2cccc(-c3nc(-c4ccc(C(F)(F)F)nc4)cc(C(F)(F)F)n3)c2)c1
63 | 89 to 90 | CCN(CC)C(=O)n1cc(F)c(S(=O)(=O)c2c(Cl)cc(Cl)cc2Cl)n1
64 | 180 | Cc1c(NC(=O)c2ccc(OCC3CC3)cc2)ccc2cc(CNCC(C)(C)O)n(C)c12
65 | 74 to 77 | CCCC=Cc1c(C(C)C)nc(C(C)C)c(C(=O)OCC)c1-c1ccc(C)cc1
66 | 194 to 196 | Cn1nc2c(N)nc3ccccc3c2c1CC(C)(C)NC(=O)c1ccccc1
67 | 258 to 259 | O=C(C=c1sc2n(c1=O)Cc1ccccc1N=2)NCc1ccccc1
68 | 96 to 98 | Cc1nc(Cl)cc(C2(c3ccc(Cl)cc3)CCC2)n1
69 | 139 to 142 | O=C(O)C=CC(=O)Oc1ccc(Nc2ccccc2)cc1
70 | 109 to 112 | CN(C)C(=O)N1CCC(C(=O)N(CCCN2CCC(Cc3ccccc3)CC2)c2ccc(Cl)c(Cl)c2)CC1
71 | 117 | COc1cccc(C(=O)NCCc2ccc(-c3ccc(OC(C)(C)C(=O)O)cc3)cc2)c1
72 | 189 to 192 | O=C1c2ccncc2C(=O)c2c(F)ccc(O)c21
73 | 69 to 70 | N#Cc1ccc(COc2cccc(F)c2)cc1
74 | 108 to 109 | CCCOc1nn(Cc2ccc(OCc3nc(-c4ccccc4)oc3C)cc2)cc1CCC(=O)O
75 | 297 to 300 | Cc1ccc(N2CN(C(=O)c3ccccc3)C3=NN=CC3=C2N)cc1
76 | > 250 | CC(C)n1nc(-c2sc(NC(=N)N)nc2-c2ccccc2)ccc1=O
77 | 93 to 94 | C#CC1(O)c2ccccc2COc2ccccc21 (centres undefined)

Row | melting point [°C] | Compound
78 | 154 | CC(C)(CCc1ccccc1)NCC(O)c1ccc(O)c(C(N)=O)c1 (centres undefined)
79 | 146 to 148 | O=c1[nH]c(Cl)c(Cc2ccccc2)c(=O)n1Cc1ccccc1
80 | 143 to 145 | COc1ccc(C=C2c3ccccc3C(=NOCC(=O)NCC(C)(C)SN=O)c3ccccc32)cc1O
81 | 206 to 209 | CC(Cn1ccnc1)Cn1c(=O)c2ccc(Cl)cc2n(C)c1=O (centres undefined)
82 | 165 to 167 | CS(=O)(=O)c1ccc(-c2ccc(S(=O)(=O)CC(CO)N(O)C=O)cc2)cc1 (centres undefined)
83 | 197 to 198 | COC(=O)C(CC#Cc1cc2c(O)c(C(=O)NCc3ccc(Cl)cc3)cnc2s1)C(=O)OC
84 | 208 to 210 | CNc1cc(NC)c(C(=O)NCCC(=O)OC)cc1NC(=O)c1ccc(C#N)cc1
85 | 217 to 219 | COC(=O)c1cc(NC=O)c2cc(Cc3ccc(F)cc3)cnc2c1O
86 | 300 | NS(=O)(=O)c1ccc(Cl)c(NC(=O)c2cnn3c(C(F)(F)F)cc(-c4ccc(C(F)(F)F)cc4)nc23)c1
87 | 132 to 134 | CCc1cc(OCc2ccc(-c3ccccc3C(=O)OC)cc2)c2ccccc2n1
88 | 176 | CC(=O)NCc1ccc(CC(=NNc2ccc(Br)cn2)c2ccccc2)o1
89 | 124 to 125 | COc1ccc(C2(c3ccc(OC)cc3)C(c3ccccc3)C2(Cl)Cl)cc1 (centres undefined)
90 | 143 to 144 | Cc1c(C)c2c(c(C)c1NC(=O)CC(C)(C)C)[C@@H](c1ccc(C(C)C)cc1)[C@H](C)O2 (relative stereo)
91 | 149 to 154 | COC(=O)NNS(=O)(=O)c1ccccc1
92 | 158 | O=C(NC(Cc1ccc(-c2cccc3ccccc23)cc1)C(=O)O)C(CS)Cc1ccccc1 (centres undefined)
93 | 233 to 234 | O=Cc1ccc(-c2ccc(-c3ccc(C=O)o3)cc2)o1
94 | 210 to 212 | CC(C)c1cccc(F)c1NC(=S)N/N=C/c1ccc(-c2ncn(-c3ccc(OC(F)(F)F)cc3)n2)cc1
95 | 169 to 170 | O=C(NO)c1ccc(C(=O)NC/C=C/c2ccccc2)cc1
96 | 90 to 93 | CCOC(=O)C(Cc1ccc(O)cc1)Oc1ccc(Cl)cc1 (centres undefined)
97 | 158 to 160 | CN1C(=O)C(C)(c2ccc(O)cc2)Sc2ccccc21 (centres undefined)
98 | 192 to 194 | O=C(O)Cc1c(C(=O)O)c2cc(Oc3cccc(Cl)c3)ccc2n1-c1ccccc1
99 | 116 | Cc1ccc(-c2ccccc2)cc1Cn1c(Cl)nn(C)c1=O
